Tested on: participants with SSc-RP
Assay: Average severity of weekly RP attacks (VAS 0-10 cm scale)
Assay type: in vivo, human
Source text: The absolute change in average severity of weekly RP attacks (VAS 0-10 cm scale) from baseline to the end of each Dosing Period was and will be a secondary outcome variable. The sponsor-developed participant-informed diary will be used to record data. Average severity of weekly RP attacks is defined as the total severity scores of RP attacks divided by total number of RP attacks within the last 7 days of each dosing period. Total severity scores of RP attacks during the last 7 days of screening period divided by the total number of RP attacks will be used as baseline for the analysis of all periods. The variable will be calculated similar to frequency data as before.

[1] = Excluding Outliers, Tadalafil 5 mg, second Baseline RCS subgroup block (not named), ITT Part A
[2] = Excluding Outliers, Tadalafil 5 mg, second Baseline RCS subgroup block (not named), ITT Part A, score 0-10
[3] = Tadalafil 5 mg, n=1, Excluding Outliers, ITT Population - Part A
[4] = Tadalafil 5 mg, n=2, ITT Population - Part A
[5] = Tadalafil 5 mg, n=2, by Baseline RCS, second subgroup, ITT Population - Part A
[6] = Tadalafil 5 mg, Excluding Outliers, ITT Population - Part A
[7] = Tadalafil 5 mg, Excluding Outliers, by Baseline RCS, second subgroup, ITT Population - Part A
[8] = Tadalafil 5 mg, ITT Population - Part A
[9] = Tadalafil 5 mg, second Baseline RCS subgroup block (not named), ITT Part A
[10] = Tadalafil 5 mg, second Baseline RCS subgroup block (not named), ITT Part A, score 0-10

With `CN1CC(=O)N2[C@H](c3ccc4c(c3)OCO4)c3[nH]c4ccccc4c3C[C@@H]2C1=O` [Tadalafil, tadalafil] the “Average Severity of Weekly RP Attacks (All Attacks), Percent Change from Baseline, Mean” value [1] was −20.69%, the “Average Severity of Weekly RP Attacks (All Attacks), Percent Change from Baseline, Median” value [1] was −20.69% and the “Average Severity of Weekly RP Attacks (All Attacks), Change from Baseline, Mean” value [2] was −1.19. The “Average Severity of Weekly RP Attacks (All Attacks), Change from Baseline, Median” value [2] was −1.19, the “Average Severity of Weekly RP Attacks (All Attacks), Mean” value (“Average Severity … (All Attacks), Mean” for short) [2] was 4.56 and the “Average Severity of Weekly RP Attacks (All Attacks), Median” value (“Average Severity … (All Attacks), Median” for short) [2] was 4.56. The “Average Severity (0-10) of Weekly Symptomatic RP Attacks, Mean” value [3] was 4.67, the “Average Severity (0-10) of Weekly Symptomatic RP Attacks, Median” value [3] was 4.67 and the “Average Severity of Weekly Symptomatic RP Attacks, Change from Baseline, Mean” value [3] was −1.32. The “Average Severity of Weekly Symptomatic RP Attacks, Change from Baseline, Median” value [3] was −1.32, the “Average Severity of Weekly Symptomatic RP Attacks, Percent Change from Baseline, Mean” value [3] was −22.01% and the “Average Severity of Weekly Symptomatic RP Attacks, Percent Change from Baseline, Median” value [3] was −22.01%. For the same compound, the “Average Severity (0-10) of Weekly Symptomatic RP Attacks, Mean” value [4] was 7.08, the “Average Severity (0-10) of Weekly Symptomatic RP Attacks, Median” value [4] was 7.08 and the “Average Severity of Weekly Symptomatic RP Attacks, Change from Baseline, Mean” value [4] was −0.60. For the same compound, the “Average Severity of Weekly Symptomatic RP Attacks, Change from Baseline, Median” value [4] was −0.60, the “Average Severity of Weekly Symptomatic RP Attacks, Percent Change from Baseline, Mean” value [4] was −10.43% and the “Average Severity of Weekly Symptomatic RP Attacks, Percent Change from Baseline, Median” value [4] was −10.43%. The “Average Severity (0-10) of Weekly Symptomatic RP Attacks, Mean” value [5] was 7.08, the “Average Severity (0-10) of Weekly Symptomatic RP Attacks, Median” value [5] was 7.08 and the “Average Severity of Weekly Symptomatic RP Attacks, Change from Baseline, Mean” value [5] was −0.60. For the same compound, the “Average Severity of Weekly Symptomatic RP Attacks, Change from Baseline, Median” value [5] was −0.60, the “Average Severity of Weekly Symptomatic RP Attacks, Percent Change from Baseline, Mean” value [5] was −10.43% and the “Average Severity of Weekly Symptomatic RP Attacks, Percent Change from Baseline, Median” value [5] was −10.43%. The “Average Severity of Weekly RP Attacks (All Attacks), Change from Baseline, Mean” value [6] was −1.19, the “Average Severity of Weekly RP Attacks (All Attacks), Change from Baseline, Median” value [6] was −1.19 and the “Average Severity … (All Attacks), Mean” value [6] was 4.56. For the same compound, the “Average Severity … (All Attacks), Median” value [6] was 4.56, the “Average Severity of Weekly RP Attacks (All Attacks), Percent Change from Baseline, Mean” value [6] was −20.69% and the “Average Severity of Weekly RP Attacks (All Attacks), Percent Change from Baseline, Median” value [6] was −20.69%. The “Average Severity of Weekly Symptomatic RP Attacks (Mean)” value [7] was 4.67, the “Average Severity of Weekly Symptomatic RP Attacks (Median)” value [7] was 4.67 and the “Average Severity of Weekly Symptomatic RP Attacks, Change from Baseline, Mean” value [7] was −1.32. For the same compound, the “Average Severity of Weekly Symptomatic RP Attacks, Change from Baseline, Median” value [7] was −1.32, the “Average Severity of Weekly Symptomatic RP Attacks, Percent Change from Baseline, Mean” value [7] was −22.01% and the “Average Severity of Weekly Symptomatic RP Attacks, Percent Change from Baseline, Median” value [7] was −22.01%. The “Average Severity of Weekly RP Attacks (All Attacks), Change from Baseline, Mean” value [8] was −0.47, the “Average Severity of Weekly RP Attacks (All Attacks), Change from Baseline, Median” value [8] was −0.47 and the “Average Severity … (All Attacks), Mean” value [8] was 7.02. For the same compound, the “Average Severity … (All Attacks), Median” value [8] was 7.02, the “Average Severity of Weekly RP Attacks (All Attacks), Percent Change from Baseline, Mean” value [8] was −8.97% and the “Average Severity of Weekly RP Attacks (All Attacks), Percent Change from Baseline, Median” value [8] was −8.97%. For the same compound, the “Average Severity of Weekly RP Attacks (All Attacks), Percent Change from Baseline, Mean” value [9] was −8.97%, the “Average Severity of Weekly RP Attacks (All Attacks), Percent Change from Baseline, Median” value [9] was −8.97% and the “Average Severity of Weekly RP Attacks (All Attacks), Change from Baseline, Mean” value [10] was −0.47. For the same compound, the “Average Severity of Weekly RP Attacks (All Attacks), Change from Baseline, Median” value [10] was −0.47, the “Average Severity … (All Attacks), Mean” value [10] was 7.02 and the “Average Severity … (All Attacks), Median” value [10] was 7.02. The reduction in severity (more severe disease at baseline (RCS>5.0), n=2 per treatment) was 6.3%.

Source: US20240358693A1, “METHODS OF TREATING PAIN” (Aisa Pharma, Inc., priority 2023, published 2024)
